Numbers after ± are expanded uncertainties.
Assay: activity coefficient (dimensionless); of the first substance listed, at infinite dilution; xn = mol fraction of the nth substance listed
Conditions: 298 K; 101 kPa; Liquid; Chromatography; x1 = 0

**Q.** With Clc1ccccc1Cl [1,2-dichlorobenzene] + NC=O as the compound, how does the activity coefficient read?
**A.** Its activity coefficient is 159 ± 17.

**Q.** With c1ccccc1 [benzene] + NC=O as the compound, how does the activity coefficient read?
**A.** The activity coefficient was 53 ± 6.

**Q.** With c1ccc(-c2ccccc2)cc1 [biphenyl] + NC=O as the compound, how does the activity coefficient read?
**A.** Its activity coefficient is 1320 ± 150.

**Q.** With Brc1ccccc1 [bromobenzene] + NC=O as the compound, how does the activity coefficient read?
**A.** Its activity coefficient is 107 ± 13.

**Q.** Which activity coefficient does the source give for Clc1ccccc1 [chlorobenzene] + NC=O here?
**A.** Its activity coefficient is 94 ± 16.

**Q.** Which activity coefficient does the source give for Fc1ccccc1 [fluorobenzene] + NC=O here?
**A.** Its activity coefficient is 54 ± 6.

**Q.** With c1ccc2ccccc2c1 [naphthalene] + NC=O as the compound, how does the activity coefficient read?
**A.** The activity coefficient was 533 ± 63.

**Q.** With Cc1ccccc1 [toluene] + NC=O as the compound, how does the activity coefficient read?
**A.** The activity coefficient was 81 ± 8.

Source: the NIST ThermoML archive (doi:10.1016/j.jct.2013.05.006)
